According to patent publication US6375999B1, “Methods for treating potatoes” (priority 1993, dated 2002):

Experiments:
[1] = tested on: stored potatoes; assay: low humidity storage after early treatment with 1,4-DMN; assay type: in vivo, potato; conditions: storage conditions of 85%, and less
Text: No approved method exists for treating silver scruff. Effective fungicides are not approved for treatment of potatoes. […] A disadvantage of low humidity storage is that such potatoes dehydrate and soften. This causes the potatoes to be less acceptable for certain markets and results in some loss of product.

[2] = tested on: freshly dug potatoes; assay: outdoor pile of injured, freshly dug potatoes sprayed with pure 1,4-dimethyl naphthalene; assay type: in vivo, potato; conditions: outdoors, humidity about 40%, no control sample
Text: A pile of freshly dug potatoes having considerable injuries such as cuts, scrapes and abrasions were sprayed with pure 1,4-dimethyl naphthalene. The pile was located outdoors with a humidity condition of about 40%. […] Although a control sample wasn't used, potatoes with such a large quantity of cuts, abrasions and the like in an exposed, low humidity environment would typically show minimal healing and a considerable amount of rot.

[3] = tested on: stored potatoes; conditions: early application to stored potatoes; cited from earlier work
[4] = tested on: potatoes which have started to sprout; assay: treatment of potatoes which have started to sprout; assay type: in vivo, potato; conditions: certain types of potatoes which have started to sprout
Text: For example, in treating a potato storage facility with liquid sprout inhibitor such as an isomer of DMN, especially the 1,4 and 1,6 isomers of DMN, it is only necessary to have a very low concentration of DMN in the atmosphere inasmuch as the quantity of DMN in a potato is very low so that only very minor quantities of DMN respire or exit the potato. Thus, only a very low partial pressure for DMN is created in a static air space surrounding a potato by respiration. The purpose of DMN in the atmosphere surrounding potatoes is to stop or reduce the exiting of DMN from the potato. Once DMN exiting starts, it is believed that such departure initiates the process which leads to sprouting. […] Thus, in applying liquid sprout inhibitors which are found natively in potatoes it is generally preferred to initiate treatment prior to the onset of sprouting and preferably prior to any considerable exiting of DMN, for example, from the stored potato.
Although, as indicated in the Plant patent, CIPC is not applied until after suberization (wound healing). DMN is preferably applied initially shortly after the potatoes have been put into the facility. […] Also, unlike CIPC, DMN is not a foreign material to a potato.

Row | SMILES | hydration and firmness of potatoes in low humidity storage [1] | evidence of rot in injured potatoes ([2]; about two days after spraying) | time after spraying until suberization processes appeared to be complete ([2]; pure compound sprayed) | effect on suberization [3] | effect on sprouting once sprouting has been initiated [4]
1 | Cc1ccc(C)c2ccccc12 [1,4-dimethyl naphthalene] | stay hydrated and firm | only a small portion of the injured potatoes showing any evidence of rot | two | – | –
2 | CC(C)OC(=O)Nc1cccc(Cl)c1 [CIPC, Chloroisopropyl-N-carbamate] | – | – | – | tends to retard suberization | generally retard potato sprouting even after sprouting has been initiated
